Holding throughout (type): physicochemical
The nature of one data set: Density, ASTM D1209. The procedure: (§1) Specifications of Product. Key specifications of RKBA-14, RKBA17, RKBA-22 and RKBA28/33 products were determined by various ASTM methods.
Data set [1] is described as follows: Boiling point, ASTM D1120, ASTM D6352. The procedure: as §1
A further data set can be described thus: Pour point, ASTM D6749. The following applies: neat oil. The procedure: as §1
Data set [2] is described as follows: Freezing point, ASTM S2386. The procedure:
as §1

A short description of another data set: Viscosity, ASTM D445. The procedure: as §1
A further data set can be described thus: Flash point, ASTM D93. How it is done:
as §1

A further data set is described as follows: RI of upcycled oils. How it is done:
as §1

A short description of data set [3]: I2 number, USP-NF-2022, issue 1. The procedure: as §1

As to `CCCCCCCCCCCC(CCCCC)CCCCC` [RKBA-22], the Density in the data set “Density, ASTM D1209” (at 25° C.) amounted to 0.8049 g/mL. The same compound displayed a Boiling point in data set [1] of 319 ± 5 °C. Besides, the “Pour Point” value in “Pour point, ASTM D6749” was −21 °C. In addition, the Freezing point in data set [2] was −10.5 ± −4 °C. For the same compound, the “Viscosity at 20° C.” value in “Viscosity, ASTM D445” (20° C.) stood at 11.35 cSt. The “Viscosity at 40° C.” value in the data set “Viscosity, ASTM D445” is 6.31 cSt. Further, the “Viscosity at 100° C.” value in the data set “Viscosity, ASTM D445” (100° C.) is 1.96 cSt. Further, in the data set “Flash point, ASTM D93”, the Flash point is reported as 153 ± 8° ° C.
As for `CCCCCCC(CCCCC)CCCCC` [RKBA-17], the Density in “Density, ASTM D1209” (at 60º F) turned out to be 0.7895 g/mL. The compound further came in with an RI in the data set “RI of upcycled oils” of 1.4. This compound also showed a Boiling point in data set [1] of 288 ± 12 °C. In addition, the 12 number in data set [3] is reported as <0.3g/ g/100 g. Further, the “Viscosity at 40° C.” value in “Viscosity, ASTM D445” is 3.42 cSt. Moreover, the Flash point in “Flash point, ASTM D93” came to 121 ± 13° ° C.

The record behind these values is patent US20260191749A1, “COMPOSITION AND PROCESS OF MAKING BIO-BASED UPCYCLED OILS IN FLOW REACTORS” (RiKarbon, Inc., priority 2022, published 2026).
